The supplement of paper PMC10307832

Tests used:
Experiment in all cases: relative viability (nuclei count vs DMSO), 5 days (fraction); higher = more cells survive
[1] = compound: COc1cc(Nc2ncc(F)c(Nc3ccc4c(n3)NC(=O)C(C)(C)O4)n2)cc(OC)c1OC [R406] + CC(=O)c1c(C)c2cnc(Nc3ccc(N4CCNCC4)cn3)nc2n(C2CCCC2)c1=O [Palbociclib] (partner 0.5 µM)
Outline: (§1)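 Each reported value is a median over duplicate plates. It expresses relative viability: treated-well nuclei count divided by vehicle-well nuclei count. Lung cancer cell lines in 1536-well plates were dosed by pin tool a day after seeding, alone with one drug or with a fixed anchor-drug dose plus five library-drug doses (not always all listed) in √10 steps, and nuclei were counted after 5 days.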

[2] = compound: O=C(/C=C/c1cccnc1)NCCCCC1CCN(C(=O)c2ccccc2)CC1 [Daporinad] + CS(=O)(=O)N1CCN(Cc2cc3nc(-c4cccc5[nH]ncc45)nc(N4CCOCC4)c3s2)CC1 [Pictilisib] (partner 1 µM)
Outline: as §1

[3] = compound: O=C(/C=C/c1cccnc1)NCCCCC1CCN(C(=O)c2ccccc2)CC1 [Daporinad] + O=C(c1cc(Cc2n[nH]c(=O)c3ccccc23)ccc1F)N1CCN(C(=O)C2CC2)CC1 [Olaparib] (partner 8 µM)
Outline: as §1

[4] = compound: O=C(/C=C/c1cccnc1)NCCCCC1CCN(C(=O)c2ccccc2)CC1 [Daporinad] + CC(=O)c1c(C)c2cnc(Nc3ccc(N4CCNCC4)cn3)nc2n(C2CCCC2)c1=O [Palbociclib] (partner 0.5 µM)
Outline: as §1

Row | Cell Line | relative viability ([1]; first compound 0.08 µM) | relative viability ([1]; first compound 0.253 µM) | relative viability ([1]; first compound 0.8 µM) | relative viability ([1]; first compound 2.53 µM) | relative viability ([1]; first compound 8 µM) | relative viability ([2]; first compound 0.0005 µM) | relative viability ([2]; first compound 0.001581 µM) | relative viability ([2]; first compound 0.005 µM) | relative viability ([2]; first compound 0.01581 µM) | relative viability ([3]; first compound 0.0005 µM) | relative viability ([3]; first compound 0.001581 µM) | relative viability ([3]; first compound 0.005 µM) | relative viability ([3]; first compound 0.01581 µM) | relative viability ([4]; first compound 0.0005 µM) | relative viability ([4]; first compound 0.001581 µM) | relative viability ([4]; first compound 0.005 µM) | relative viability ([4]; first compound 0.01581 µM)
1 | LXF-289 | 0.589 | 0.621 | 0.623 | 0.596 | 0.596 | 0.714 | 0.862 | 0.879 | 0.859 | 0.952 | 1.13 | 0.929 | 0.945 | 0.59 | 0.633 | 0.6 | 0.602
2 | NCI-H23 | 0.496 | 0.539 | 0.629 | 0.454 | 0.155 | 0.59 | 0.502 | 0.446 | 0.347 | 0.221 | 0.245 | 0.238 | 0.172 | 0.578 | 0.467 | 0.463 | 0.275
3 | NCI-H322M | 0.463 | 0.452 | 0.468 | 0.456 | 0.354 | 0.482 | 0.55 | 0.575 | 0.52 | 0.547 | 0.567 | 0.547 | 0.516 | 0.495 | 0.565 | 0.449 | 0.512
4 | NCI-H358 | 0.12 | 0.192 | 0.126 | 0.0867 | 0.0882 | 0.266 | 0.405 | 0.338 | 0.438 | 0.556 | 0.507 | 0.351 | 0.293 | 0.111 | 0.135 | 0.154 | 0.153
5 | NCI-H441 | 0.214 | 0.191 | 0.204 | 0.137 | 0.118 | 0.435 | 0.631 | 0.588 | 0.507 | 0.488 | 0.554 | 0.344 | 0.237 | 0.186 | 0.209 | 0.212 | 0.23
6 | NCI-H460 | 0.157 | 0.2 | 0.183 | 0.0283 | 0.0792 | 0.332 | 0.368 | 0.423 | 0.535 | 0.399 | 0.375 | 0.184 | 0.143 | 0.153 | 0.191 | 0.236 | 0.169
7 | NCI-H520 | 0.173 | 0.209 | 0.244 | 0.164 | 0.108 | 0.346 | 0.29 | 0.29 | 0.187 | 0.261 | 0.202 | 0.221 | 0.153 | 0.209 | 0.286 | 0.158 | 0.183
8 | NCI-H647 | 0.387 | 0.37 | 0.426 | 0.261 | 0.0695 | 0.403 | 0.556 | 0.489 | 0.53 | 0.624 | 0.547 | 0.224 | 0.156 | 0.251 | 0.429 | 0.414 | 0.363
9 | NCI-H650 | 0.34 | 0.412 | 0.322 | 0.289 | 0.253 | 0.937 | 0.962 | 1.02 | 1.05 | 0.358 | 0.462 | 0.346 | 0.285 | 0.351 | 0.423 | 0.329 | 0.367
10 | NCI-H661 | 0.398 | 0.411 | 0.382 | 0.42 | 0.322 | 0.412 | 0.376 | 0.487 | 0.357 | 0.687 | 0.616 | 0.665 | 0.402 | 0.389 | 0.459 | 0.419 | 0.359
11 | NCI-H727 | 0.621 | 0.702 | 0.752 | 0.652 | 0.609 | 0.359 | 0.354 | 0.414 | 0.284 | 0.571 | 0.682 | 0.623 | 0.539 | 0.694 | 0.622 | 0.647 | 0.646
12 | NCI-H838 | 0.227 | 0.236 | 0.247 | 0.179 | 0.107 | 0.507 | 0.559 | 0.592 | 0.53 | 0.699 | 0.631 | 0.482 | 0.341 | 0.254 | 0.258 | 0.29 | 0.199
13 | NCI-H1355 | 0.404 | 0.366 | 0.416 | 0.329 | 0.278 | 0.417 | 0.549 | 0.628 | 0.576 | 0.693 | 0.737 | 0.6 | 0.479 | 0.413 | 0.412 | 0.384 | 0.504
14 | NCI-H1395 | 0.609 | 0.663 | 0.652 | 0.47 | 0.551 | 0.615 | 0.697 | 0.574 | 0.674 | 0.436 | 0.471 | 0.432 | 0.425 | 0.659 | 0.618 | 0.531 | 0.718
15 | NCI-H1437 | 0.318 | 0.349 | 0.363 | 0.391 | 0.229 | 0.418 | 0.527 | 0.433 | 0.553 | 0.619 | 0.624 | 0.633 | 0.548 | 0.274 | 0.332 | 0.338 | 0.289
16 | NCI-H1650 | 0.337 | 0.345 | 0.396 | 0.117 | 0.0985 | 0.503 | 0.727 | 0.715 | 0.733 | 0.724 | 0.601 | 0.431 | 0.443 | 0.321 | 0.413 | 0.415 | 0.334

Row | Cell Line | relative viability ([1]; first compound 0.08 µM) | relative viability ([1]; first compound 0.253 µM) | relative viability ([1]; first compound 0.8 µM) | relative viability ([1]; first compound 2.53 µM) | relative viability ([1]; first compound 8 µM) | relative viability ([2]; first compound 0.0005 µM) | relative viability ([2]; first compound 0.001581 µM) | relative viability ([2]; first compound 0.005 µM) | relative viability ([2]; first compound 0.01581 µM) | relative viability ([3]; first compound 0.0005 µM) | relative viability ([3]; first compound 0.001581 µM) | relative viability ([3]; first compound 0.005 µM) | relative viability ([3]; first compound 0.01581 µM) | relative viability ([4]; first compound 0.0005 µM) | relative viability ([4]; first compound 0.001581 µM) | relative viability ([4]; first compound 0.005 µM) | relative viability ([4]; first compound 0.01581 µM)
17 | NCI-H1651 | 0.496 | 0.578 | 0.531 | 0.511 | 0.527 | 0.642 | 0.683 | 0.629 | 0.601 | 0.159 | 0.15 | 0.131 | 0.138 | 0.537 | 0.528 | 0.5 | 0.522
18 | NCI-H1666 | 0.653 | 0.662 | 0.678 | 0.675 | 0.638 | 0.508 | 0.482 | 0.456 | 0.494 | 0.754 | 0.644 | 0.669 | 0.679 | 0.653 | 0.679 | 0.624 | 0.69
19 | NCI-H1734 | 0.359 | 0.372 | 0.376 | 0.346 | 0.243 | 0.454 | 0.529 | 0.557 | 0.431 | 0.567 | 0.443 | 0.327 | 0.241 | 0.361 | 0.404 | 0.356 | 0.328
20 | NCI-H1755 | 0.419 | 0.456 | 0.422 | 0.421 | 0.397 | 0.442 | 0.44 | 0.452 | 0.457 | 0.838 | 0.891 | 0.84 | 0.843 | 0.456 | 0.441 | 0.415 | 0.431
21 | NCI-H1792 | 0.603 | 0.721 | 0.708 | 0.506 | 0.518 | 0.212 | 0.317 | 0.25 | 0.377 | 0.466 | 0.493 | 0.228 | 0.222 | 0.637 | 0.694 | 0.654 | 0.681
22 | NCI-H1793 | 0.352 | 0.309 | 0.253 | 0.28 | 0.153 | 0.221 | 0.354 | 0.38 | 0.32 | 0.829 | 0.952 | 0.81 | 0.835 | 0.305 | 0.33 | 0.346 | 0.332
23 | NCI-H1915 | 0.536 | 0.567 | 0.529 | 0.488 | 0.521 | 0.967 | 1.15 | 1.13 | 0.929 | 0.265 | 0.247 | 0.193 | 0.184 | 0.569 | 0.508 | 0.61 | 0.521
24 | NCI-H1944 | 0.333 | 0.312 | 0.329 | 0.252 | 0.241 | 0.366 | 0.346 | 0.389 | 0.34 | 0.407 | 0.393 | 0.42 | 0.386 | 0.36 | 0.356 | 0.374 | 0.353
25 | NCI-H1975 | 0.537 | 0.734 | 0.644 | 0.115 | 0.192 | 0.267 | 0.333 | 0.315 | 0.304 | 0.818 | 0.764 | 0.728 | 0.611 | 0.565 | 0.602 | 0.613 | 0.705
26 | NCI-H1993 | 0.651 | 0.667 | 0.611 | 0.683 | 0.607 | 0.925 | 0.684 | 0.798 | 0.869 | 0.899 | 1.02 | 0.948 | 1.05 | 0.583 | 0.563 | 0.719 | 0.706
27 | NCI-H2009 | 0.232 | 0.212 | 0.265 | 0.192 | 0.114 | 0.784 | 1 | 0.938 | 0.661 | 0.596 | 0.58 | 0.268 | 0.219 | 0.204 | 0.253 | 0.252 | 0.0753
28 | NCI-H2023 | 0.359 | 0.355 | 0.359 | 0.174 | 0.106 | 0.252 | 0.3 | 0.245 | 0.278 | 0.51 | 0.497 | 0.414 | 0.277 | 0.402 | 0.405 | 0.445 | 0.401
29 | NCI-H2085 | 0.468 | 0.459 | 0.45 | 0.455 | 0.36 | 0.438 | 0.463 | 0.526 | 0.554 | 0.673 |  | 0.629 | 0.629 | 0.41 |  | 0.512 | 0.533
30 | NCI-H2087 | 0.231 | 0.26 | 0.26 | 0.23 | 0.243 | 0.877 | 1.1 | 0.951 | 0.907 | 0.69 | 0.575 | 0.205 | 0.236 | 0.215 | 0.242 | 0.224 | 0.243
31 | NCI-H2126 | 0.347 | 0.357 | 0.313 | 0.349 | 0.276 | 0.529 | 0.516 | 0.485 | 0.486 | 0.945 | 0.953 | 0.883 | 0.863 | 0.358 | 0.32 | 0.356 | 0.36
